Results from ChEMBL document CHEMBL3124792, “Discovery and preclinical characterization of the cyclopropylindolobenzazepine BMS-791325, a potent allosteric inhibitor of the hepatitis C virus NS5B polymerase” (J Med Chem, 2014).
Values after ≈ are worked out from the molar mass of the structure shown.

Key:
[1] = Solubility of the compound in amorphous form in phosphate buffer at pH 6.5; format: physicochemical
[2] = Permeability of the compound at pH 7.4 by PAMPA; format: physicochemical; conditions: read-out: permeability
PXR (NR1I2) = biological target: T1, PXR (NR1I2) (Homo sapiens, UniProt O75469); test: Transactivation of human PXR expressed in human HepG2 cells by luciferase reporter gene assay relative to control; format: cell-based; conditions: HepG2 cells expressing human PXR, read-out: %max
T1 sequence (O75469 whole entry): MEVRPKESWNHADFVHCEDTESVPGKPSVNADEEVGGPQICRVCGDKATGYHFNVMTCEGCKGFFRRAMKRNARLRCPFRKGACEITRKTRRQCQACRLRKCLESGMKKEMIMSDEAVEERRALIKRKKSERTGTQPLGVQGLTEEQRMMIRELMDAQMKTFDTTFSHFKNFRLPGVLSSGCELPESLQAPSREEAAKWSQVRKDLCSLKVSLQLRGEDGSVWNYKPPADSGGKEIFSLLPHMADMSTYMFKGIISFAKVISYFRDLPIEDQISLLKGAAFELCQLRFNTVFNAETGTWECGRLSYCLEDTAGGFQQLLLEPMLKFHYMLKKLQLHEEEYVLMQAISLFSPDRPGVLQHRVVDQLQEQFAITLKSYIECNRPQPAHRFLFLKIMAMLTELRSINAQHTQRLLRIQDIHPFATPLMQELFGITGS

[3] = biological target: T2, Nuclear receptor subfamily 1 group I member 2 (Homo sapiens, UniProt O75469); test: Transactivation of human PXR expressed in human HepG2 cells by luciferase reporter gene assay; format: cell-based
T2 sequence (O75469 whole entry): T1 sequence (O75469 whole entry)

[4] = Cytotoxicity against human HuH7 cells by Alamar blue assay; format: cell-based; conditions: Huh-7 cells
Hepatitis C virus [5] = test: Antiviral activity against Hepatitis C virus Con1 genotype 1b infected in human HuH7 cells after 3 days by FRET assay in presence of 40% human serum; format: functional, organism-based, Hepacivirus hominis; conditions: isolate Con1, Huh-7, 72 h
Hepatitis C virus [6] = test: Antiviral activity against Hepatitis C virus H77c genotype 1a infected in human HuH7 cells after 3 days by FRET assay; format: functional, organism-based, Hepacivirus hominis; conditions: genotype 1a H77, Huh-7, 72 h
Hepatitis C virus [7] = test: Antiviral activity against Hepatitis C virus Con1 genotype 1b infected in human HuH7 cells after 3 days by FRET assay; format: functional, organism-based, Hepacivirus hominis; conditions: isolate Con1, Huh-7, 72 h
Liver microsome [8] = conditions: human, microsomes
Liver microsome [9] = conditions: rat, microsomes
[10] = Inhibition of HCV Con1 genotype 1b recombinant wild-type NS5B polymerase-mediated incorporation of radiolabeled nucleotides by scintillation proximity assay; set-up: species or system Hepatitis C virus (isolate Con1)
[11] = biological target: RNA-directed RNA polymerase (Hepacivirus hominis, UniProt O39930, P495A); test: Inhibition of HCV Con1 genotype 1b NS5B RNA dependent RNA polymerase P495A mutant-mediated incorporation of radiolabeled nucleotides by scintillation proximity assay; set-up: species or system Hepatitis C virus (isolate Con1)
Chain of RNA-directed RNA polymerase (O39930 entry or part of it P495A): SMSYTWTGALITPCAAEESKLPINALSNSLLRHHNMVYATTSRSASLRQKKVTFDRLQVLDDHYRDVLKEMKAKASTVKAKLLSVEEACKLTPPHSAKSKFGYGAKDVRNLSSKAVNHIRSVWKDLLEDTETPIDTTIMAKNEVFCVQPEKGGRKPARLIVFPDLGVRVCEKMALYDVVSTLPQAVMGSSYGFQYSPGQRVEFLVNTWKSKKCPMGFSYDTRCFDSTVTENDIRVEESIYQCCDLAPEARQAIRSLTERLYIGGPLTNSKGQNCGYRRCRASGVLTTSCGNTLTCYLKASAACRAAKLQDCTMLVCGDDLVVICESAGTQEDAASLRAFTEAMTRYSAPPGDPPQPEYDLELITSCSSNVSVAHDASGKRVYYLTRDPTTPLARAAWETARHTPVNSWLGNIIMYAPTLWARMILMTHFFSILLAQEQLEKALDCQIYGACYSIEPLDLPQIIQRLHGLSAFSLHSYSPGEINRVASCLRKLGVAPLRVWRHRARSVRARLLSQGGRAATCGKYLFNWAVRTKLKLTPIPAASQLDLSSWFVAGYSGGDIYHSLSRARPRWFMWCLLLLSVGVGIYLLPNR

| SMILES | solubility [1] | Papp [2] | Emax (PXR (NR1I2)) | EC50 [3] | CC50 [4] | EC50 (Hepatitis C virus [5]) | EC50 (Hepatitis C virus [6]) | EC50 (Hepatitis C virus [7]) | Stability (Liver microsome [8]) | Stability (Liver microsome [9]) | IC50 [10] | EC50 [11] | EC20 ([3]; human, hepg2) |
| --- | --- | --- | --- | --- | --- | --- | --- | --- | --- | --- | --- | --- | --- |
| COc1ccc2c(c1)C1CC1(C(=O)N1CC3CCC(C1)N3C)Cn1c-2c(C2CCCCC2)c2ccc(C(=O)NS(=O)(=O)N(C)C)cc21 (racemic) | 41 µg/mL (≈ 62.1 µM) | 21 ×10⁻⁶ cm/s | 29% | 3000 nM | > 16000 nM | 153 nM | 16 nM | 39 nM | 100% | 100% |  |  |  |
| COc1ccc2c(c1)C1CC1(C(=O)N1CC3CCC(C1)N3)Cn1c-2c(C2CCCCC2)c2ccc(C(=O)NS(=O)(=O)N(C)C)cc21 (racemic) |  | 0.2 ×10⁻⁶ cm/s |  | > 50000 nM | > 10000 nM |  | 34 nM | 89 nM | 100% | 100% |  |  |  |
| COc1ccc2c(c1)C=C(C(=O)N1CCOCC1)Cn1c-2c(C2CCCCC2)c2ccc(C(=O)NS(=O)(=O)N(C)C)cc21 |  |  |  |  | > 10000 nM |  | 61 nM | 62 nM |  |  | 49 nM | 239 nM |  |
| COc1ccc2c(c1)C1CC1(C(=O)N1CCN(C(C)=O)CC1)Cn1c-2c(C2CCCCC2)c2ccc(C(=O)NS(=O)(=O)N(C)C)cc21 (racemic) | 18 µg/mL (≈ 27.2 µM) | 34 ×10⁻⁶ cm/s |  | > 50000 nM | > 10000 nM | 89 nM | 45 nM | 98 nM | 93% | 100% |  |  |  |
| CN(C)S(=O)(=O)NC(=O)c1ccc2c(C3CCCCC3)c3n(c2c1)CC(C(=O)N1CCOCC1)=Cc1ccccc1-3 |  |  |  |  | > 10000 nM |  | 119 nM | 148 nM |  |  | 52 nM | 1100 nM |  |
| COc1ccc2c(c1)C1CC1(C(=O)N1C[C@@H](C)O[C@@H](C)C1)Cn1c-2c(C2CCCCC2)c2ccc(C(=O)NS(=O)(=O)N(C)C)cc21 (mixture of isomers) |  |  |  |  | 9000 nM | 98 nM | 12 nM | 24 nM |  |  |  |  | 2800 nM |
| COc1ccc2c(c1)C1CC1(C(=O)N1CC3CCC(C1)O3)Cn1c-2c(C2CCCCC2)c2ccc(C(=O)NS(=O)(=O)N(C)C)cc21 (racemic) |  |  | 144% | 600 nM | > 10000 nM | 114 nM | 7 nM | 31 nM |  |  |  |  |  |
| COc1ccc2c(c1)C1CC1(C(=O)N1CC(O)(C3CC3)C1)Cn1c-2c(C2CCCCC2)c2ccc(C(=O)NS(=O)(=O)N(C)C)cc21 (racemic) |  | 19 ×10⁻⁶ cm/s | 12% | > 50000 nM | > 10000 nM | 68 nM | < 14 nM | 29 nM | 100% | 100% |  |  |  |
| COc1ccc2c(c1)C1CC1(C(=O)N1C[C@@H](C)N[C@@H](C)C1)Cn1c-2c(C2CCCCC2)c2ccc(C(=O)NS(=O)(=O)N(C)C)cc21 (mixture of isomers) | < 1 µg/mL | 14 ×10⁻⁶ cm/s |  | > 50000 nM | 15000 nM | 55 nM | 21 nM | 29 nM | 91% | 100% |  |  |  |
| COc1ccc2c(c1)C1CC1(C(=O)N1CCN(C(=O)N(C)C)CC1)Cn1c-2c(C2CCCCC2)c2ccc(C(=O)NS(=O)(=O)N(C)C)cc21 (racemic) | 18 µg/mL (≈ 26.1 µM) | 43 ×10⁻⁶ cm/s |  | > 50000 nM | > 10000 nM | 59 nM | 23 nM | 54 nM | 64% | 93% |  |  |  |
| COc1ccc2c(c1)C1CC1(C(=O)N1CC(O)(c3ccccc3)C1)Cn1c-2c(C2CCCCC2)c2ccc(C(=O)NS(=O)(=O)N(C)C)cc21 (racemic) |  | 39 ×10⁻⁶ cm/s | 10% | > 50000 nM | 8000 nM |  | 68 nM | 160 nM | 72% | 100% |  |  |  |
